The values below are quoted from earlier work in publication PMC10646941 (Chemical Science, 2023).

The data set concerns the target SARS-CoV-2 3C-Like Protease.

Consider `CC(C)(C)[C@H](NC(=O)C(F)(F)F)C(=O)N1C[C@H]2[C@@H]([C@H]1C(=O)N[C@H](C#N)C[C@@H]1CCNC1=O)C2(C)C` [nirmatrelvir], for which the kinact/Ki was 55000 M⁻¹ s⁻¹.
